For 37 molecules, TGI and GI50 results are on record in PubChem BioAssay (NCI).

Among the test systems are DMS 114 small cell lung; HOP-18 NSCLC; KM20L2 colon; M19-MEL melanoma; RXF-631 renal; SNB-78 CNS; XF 498 CNS; LXFL 529 NSCLC; MDA-N; P388 leukemia; P388/ADR leukemia; SN12K1 renal.
Common to all, as to assay: NCI tumour cell line growth inhibition, 48 h

SMILES strings stand for the structures.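 48-hour exposure; five concentrations; linearly interpolated endpoints. The concentration for 50% growth inhibition is given as GI50. The concentration for full growth arrest is given as TGI.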

For the molecule `C(=C\C(Sc1ccccc1)c1ccccc1)/NNC1=NC(c2ccccc2)C(c2ccccc2)=NN1` (centres undefined), the TGI with DMS 114 small cell lung, in the assay on HOP-18 NSCLC, in the assay on KM20L2 colon, in the assay with M19-MEL melanoma, in the assay with RXF-631 renal and in the assay with SNB-78 CNS was greater than 100 µM throughout. Besides, in the assay on XF 498 CNS, the TGI was greater than 100 µM.

Turning to `c1ccc2c(c1)Cc1c(Cc3csc4ccccc34)ccc3cccc-2c13`, the TGI in the assay with DMS 114 small cell lung, in the assay on KM20L2 colon, in the assay with LXFL 529 NSCLC, in the assay with M19-MEL melanoma, with RXF-631 renal and in the assay on SNB-78 CNS was greater than 100 µM in each case. In the assay on XF 498 CNS, this molecule yielded a TGI greater than 100 µM.

Molecule `CC(=O)Nc1ccc(S(=O)(=O)N=S(C)C)cc1` returned a TGI with MDA-N greater than 100 µM.

`CCOC(=O)c1[nH]c2cc(OC)c(OC)cc2c1CN(C)C`: the TGI in the assay with DMS 114 small cell lung, in the assay with KM20L2 colon and in the assay on SNB-78 CNS was greater than 100 µM in each case.

For the molecule `Cc1ccc(N=C2N=C(N3CC(C)OC(C)C3)c3ccccc32)cc1` (centres undefined), the TGI is greater than 100 µM in the assay on KM20L2 colon; 57.6 µM in the assay with LXFL 529 NSCLC; greater than 100 µM in the assay with M19-MEL melanoma; greater than 100 µM with RXF-631 renal; greater than 100 µM in the assay with SNB-78 CNS; 64.5 µM in the assay on XF 498 CNS.

For the molecule `O=C(N/C(=C\c1ccccc1O)c1nc2ccccc2[nH]1)c1ccccc1`, the TGI with DMS 114 small cell lung, in the assay on HOP-18 NSCLC, in the assay on KM20L2 colon, in the assay on LXFL 529 NSCLC, with M19-MEL melanoma and in the assay on SNB-78 CNS was greater than 100 µM each time. This molecule registered a TGI in the assay with XF 498 CNS greater than 100 µM.

Regarding `NC(Cc1c[nH]c2ccc([N+](=O)[O-])cc12)C(=O)O` (centres undefined), in the assay with MDA-N, the TGI is greater than 100 µM.

On to `COc1ccc(O)cc1C(O)c1ccccc1` (centres undefined), for which the TGI with DMS 114 small cell lung, in the assay on HOP-18 NSCLC, with KM20L2 colon, in the assay with LXFL 529 NSCLC, in the assay with M19-MEL melanoma and in the assay with SNB-78 CNS was greater than 100 µM throughout. In the assay with XF 498 CNS, this molecule showed a TGI greater than 100 µM.

With `CC(=O)NNc1nc(C)c(C(=O)NNC(=O)C(=O)Nc2c([N+](=O)[O-])ccc(C)c2C)s1`, the TGI in the assay with DMS 114 small cell lung, in the assay with KM20L2 colon, in the assay with LXFL 529 NSCLC, in the assay on M19-MEL melanoma, in the assay with SNB-78 CNS and in the assay on XF 498 CNS was greater than 100 µM throughout.

As to `CC(=O)c1ccccc1NC(=O)C(=O)C(C(=O)c1ccccc1-c1ccccc1)C1OC(=O)c2ccccc21` (centres undefined), the TGI with HOP-18 NSCLC was 36.1 µM; with KM20L2 colon, 53 µM; in the assay with LXFL 529 NSCLC, 31.3 µM; with M19-MEL melanoma it was 48.2 µM; in the assay with RXF-631 renal, greater than 100 µM; in the assay on SNB-78 CNS, greater than 100 µM. In addition, the TGI in the assay on XF 498 CNS was 24.3 µM.

Turning to `CCOC(=N)CC(=O)Nc1ccccc1`, the TGI was greater than 46.4 µM in the assay with DMS 114 small cell lung; greater than 31.6 µM in the assay on HOP-18 NSCLC; greater than 100 µM in the assay with KM20L2 colon; greater than 46.4 µM with LXFL 529 NSCLC; greater than 46.4 µM with M19-MEL melanoma; greater than 46.4 µM in the assay on SNB-78 CNS. The molecule further yielded a TGI with XF 498 CNS greater than 67 µM.

In the case of `CC1(C)C(=O)C(C)(C)C1=NNC(N)=S`, the TGI in the assay with DMS 114 small cell lung, in the assay on KM20L2 colon, in the assay on LXFL 529 NSCLC, in the assay on M19-MEL melanoma, in the assay on RXF-631 renal and with SNB-78 CNS was greater than 100 µM each time. This molecule also came in with a TGI in the assay on XF 498 CNS greater than 100 µM.

As to `O=C1NC2(CCCCC2)C(=O)N1CCN(CCCl)CCCl`, the TGI was 248 µM in the assay on DMS 114 small cell lung; greater than 250 µM in the assay on HOP-18 NSCLC; greater than 194 µM with KM20L2 colon; greater than 250 µM in the assay on M19-MEL melanoma; greater than 25 µM in the assay on MDA-N; 189 µM with P388 leukemia. The TGI is 234 µM with P388/ADR leukemia, greater than 250 µM with SN12K1 renal, greater than 245 µM in the assay with SNB-78 CNS and 39.6 µM with XF 498 CNS.

As to `CCCCCCCCCCCCCCCC(=O)OCCOCCOCCOCCOCCOC(=O)CCCCCCCCCCCCCCC`, the TGI with DMS 114 small cell lung, in the assay on HOP-18 NSCLC, in the assay with KM20L2 colon, with LXFL 529 NSCLC, with M19-MEL melanoma and with RXF-631 renal was greater than 100 µM throughout. The molecule also gave a TGI with SNB-78 CNS greater than 100 µM.

In the assay on MDA-N, `COc1cc([N+](=O)[O-])c(S(=O)(=O)O)cc1-n1nc(C(=O)Nc2ccccc2)n[n+]1-c1cc(S(=O)(=O)[O-])c([N+](=O)[O-])cc1OC` returned a TGI greater than 100 µM.

As to `CCc1cc2c(O)c(c1)Cc1cc(CC)cc(c1O)Cc1cc(CC)cc(c1O)Cc1cc(CC)cc(c1O)Cc1cc(CC)cc(c1O)Cc1cc(CC)cc(c1O)Cc1cc(CC)cc(c1O)C2`, the TGI in the assay on DMS 114 small cell lung, in the assay with KM20L2 colon, in the assay with LXFL 529 NSCLC, in the assay with M19-MEL melanoma, in the assay with SNB-78 CNS and with XF 498 CNS was greater than 100 µM throughout.

`O=C1C=C2CCCC2C(C(=O)O)(C(=O)O)C1` (centres undefined): the TGI in the assay on DMS 114 small cell lung, with LXFL 529 NSCLC, in the assay with M19-MEL melanoma, in the assay on RXF-631 renal, in the assay on SNB-78 CNS and in the assay on XF 498 CNS was greater than 100 µM throughout.

`O=C(N=c1nc(NC(=O)c2ccccc2)ss1)c1ccccc1`: the TGI is 90.3 µM in the assay on DMS 114 small cell lung, greater than 100 µM in the assay with KM20L2 colon, greater than 100 µM in the assay with M19-MEL melanoma and greater than 100 µM with SNB-78 CNS.

`Oc1ccc2ccccc2c1C=NCc1c(O)ccc2ccccc12` yielded a TGI with MDA-N greater than 100 µM.

Regarding `O=C(CC1C(=O)Nc2ccccc2S1(=O)=O)Nc1ccc(Cl)cc1` (centres undefined), the TGI in the assay on DMS 114 small cell lung is 55.7 µM; in the assay with KM20L2 colon, greater than 100 µM; in the assay with LXFL 529 NSCLC, 78.2 µM; in the assay with M19-MEL melanoma, 61.9 µM; in the assay on RXF-631 renal, greater than 100 µM; in the assay on SNB-78 CNS it was 93.8 µM. Further, the TGI in the assay with XF 498 CNS stood at 30.5 µM.

Turning to `OC1CCCC2CCC[N-]C12.OC1CCCC2CCC[N-]C12.[O]=[V][OH]` (centres undefined), in the assay with MDA-N, the GI50 was 5.86 µM and the TGI was greater than 100 µM.

With `N#C/C(=C1\OC(=N)C(c2ccccc2)C1=O)c1ccccc1` (centres undefined), the TGI in the assay on DMS 114 small cell lung is greater than 82.2 µM; in the assay with HOP-18 NSCLC it was 92.3 µM; in the assay with KM20L2 colon, greater than 100 µM; with LXFL 529 NSCLC, 36.3 µM; in the assay on M19-MEL melanoma, 56.5 µM; with SNB-78 CNS it was greater than 100 µM. Further, in the assay with XF 498 CNS, the TGI turned out to be 46.2 µM.

`CC(=O)Nc1cc2cc(NS(=O)(=O)c3ccc(Cl)c(Cl)c3)ccc2oc1=O` returned a TGI in the assay on MDA-N greater than 100 µM.

In turn, `CCCc1nc(Cl)c(Cl)c(Cl)n1` yielded a TGI with MDA-N greater than 100 µM.

With `Cc1ccc(/C=C/C(=O)c2sc(-n3nc(-c4ccccc4)cc3-c3ccccc3)nc2C)cc1`, the TGI with DMS 114 small cell lung, in the assay with HOP-18 NSCLC, in the assay with KM20L2 colon, with M19-MEL melanoma and in the assay on SNB-78 CNS was greater than 100 µM each time.

Consider `Nc1nc2c(-c3ccc([N+](=O)[O-])cc3)nnn2c2ccccc12`, for which the TGI in the assay on HOP-18 NSCLC, in the assay with LXFL 529 NSCLC, with M19-MEL melanoma, in the assay on SNB-78 CNS and in the assay with XF 498 CNS was greater than 100 µM each time.

As for `Cc1c2ccncc2c(C)c2c1sc1ccccc12`, the TGI with MDA-N came to 47.6 µM.

Turning to `COc1ccc(/C=C/C(=O)c2c(-c3ccccc3)nn(C)c(=O)c2N2CCOCC2)cc1`, the TGI in the assay on DMS 114 small cell lung, with HOP-18 NSCLC, with KM20L2 colon, in the assay on LXFL 529 NSCLC, in the assay on M19-MEL melanoma and in the assay on RXF-631 renal was greater than 100 µM in each case. Moreover, in the assay on XF 498 CNS, the TGI came to 83.9 µM.

In the assay with MDA-N, `COS(C)(=O)=O` returned a TGI greater than 2 µM.

Take `COc1cc2c(c(OC)c1OC)-c1ccc(SC)c(=O)cc1[C@@H](NC(=O)C(F)(F)F)CC2`: the TGI in the assay with HOP-18 NSCLC was greater than 100 µM; with KM20L2 colon it was less than 0.0115 µM; with LXFL 529 NSCLC, greater than 100 µM; in the assay on M19-MEL melanoma, greater than 100 µM; with MDA-N it was less than 0.01 µM; in the assay on XF 498 CNS it was 2.37 µM.

In the case of `O=C(Nc1ccccc1)OC1OC(COC(=O)c2ccccc2)C(OC(=O)c2ccccc2)C1OS(=O)(=O)c1ccc([N+](=O)[O-])cc1` (centres undefined), the TGI in the assay on MDA-N was greater than 100 µM.

`C/C=C/C(=O)[O-].C/C=C/C(=O)[O-].N.N.N.N.[Co+3].[O-][Cl+3]([O-])([O-])[O-]`: the GI50 in the assay on KM20L2 colon, in the assay with LXFL 529 NSCLC and with SNB-78 CNS was greater than 100 µM throughout. Besides, the TGI with KM20L2 colon, in the assay with LXFL 529 NSCLC and with SNB-78 CNS was greater than 100 µM throughout.

Take `NS(=O)(=O)c1ccc(NC(=O)C2C(=O)C(=O)N(c3ccc(S(N)(=O)=O)cc3)C2=O)cc1` (centres undefined): the TGI in the assay on DMS 114 small cell lung, in the assay with HOP-18 NSCLC, in the assay with KM20L2 colon, in the assay on LXFL 529 NSCLC, with M19-MEL melanoma and in the assay on RXF-631 renal was greater than 100 µM in each case. Further, the TGI with SNB-78 CNS was greater than 100 µM.

As to `CC1(C)c2ccccc2N2O[C@@H]3C(=O)N(c4ccccc4)C(=O)[C@@H]3C21c1ccccc1` (some centres undefined), the TGI with DMS 114 small cell lung, in the assay with LXFL 529 NSCLC, with M19-MEL melanoma, with SNB-78 CNS and in the assay with XF 498 CNS was greater than 100 µM each time.

For the molecule `CCCCNC(=S)OCCC(C)CCCC(C)C` (centres undefined), the TGI in the assay on DMS 114 small cell lung, in the assay with HOP-18 NSCLC, in the assay on KM20L2 colon, with LXFL 529 NSCLC, in the assay with M19-MEL melanoma and in the assay on SNB-78 CNS was greater than 100 µM throughout. Also, the TGI in the assay with XF 498 CNS was greater than 100 µM.

On to `O=C(CCC(=O)Nc1cccc(C(F)(F)F)c1)CC(=O)c1ccc2ccccc2c1`, for which the TGI in the assay on DMS 114 small cell lung, in the assay with HOP-18 NSCLC, in the assay with KM20L2 colon, with LXFL 529 NSCLC, with M19-MEL melanoma and with RXF-631 renal was greater than 100 µM in each case. Further, the TGI in the assay on SNB-78 CNS and in the assay with XF 498 CNS was greater than 100 µM throughout.

Take `CC1C=CC(C(N)C(=O)O)O1` (centres undefined): the TGI in the assay on DMS 114 small cell lung, in the assay with KM20L2 colon, in the assay on LXFL 529 NSCLC, in the assay on M19-MEL melanoma, with SNB-78 CNS and in the assay with XF 498 CNS was greater than 100 µM each time.
